Measurements reported in US11987600B2, “Contraceptive use of triterpenoids” (The Regents of the University of California, priority 2017, dated 2024).

Key:
human sperm [1] = test: Sperm hyperactivation: curvilinear velocity (VCL) of human sperm; type: cell-based; conditions: for change (increase) of VCL / reduction of VCL values in comparison to VCL in the presence of P4: capacitated spermatozoa; for change (increase) of VCL: compound alone; for decrease of VCL compared to sperm treated with PregS alone: capacitated sperm; for reduction of VCL values in comparison to VCL in the presence of P4: stimulated with P4 + compound
Source text: (§1) Pristimerin and lupeol decrease sperm hyperactivation in the presence of P4. Hyperactivated sperm motility is characterized by a highly asymmetrical bending of the sperm tail due to a CatSper-mediated rise in flagellar calcium concentration (15). Curvilinear velocity (VCL) is the average velocity of the sperm head through the sperm trajectory, which increases during capacitation. A CatSper-mediated calcium rise promotes hyperactivation and makes the sperm trajectory less linear, which results in an increase of VCL. Capacitation increases CatSper activity, which results in a higher percentage of sperm with hyperactivated motility. Thus, capacitated spermatozoa tend to have higher VCL values than non-capacitated. Since both P4 and PregS activate CatSper, while pristimerin and lupeol inhibit it, we explored whether VCL values of human sperm are affected in the presence of plant triterpenoids or steroid hormones. As expected, neither of the compounds changed VCL values of non-capacitated sperm cells. […] Stimulating capacitated sperm with PregS in combination with pristimerin or lupeol decreased VCL by 18% and 9%, respectively, compared to sperm, which were treated with PregS alone. […] Since CatSper is not only required for hyperactivation but also for basal motility, we sought to determine whether pristimerin and lupeol also affect sperm motility.

CatSper [2] = test: Activity of steroids and modified steroids on CatSper activation (method not described); type: cell-based, human; conditions: for activity relative to progesterone: effect of position 11 versus position 3 modification; for effect on CatSper activation: competing with progesterone
human sperm [3] = test: Sperm motility: number/percentage of motile spermatozoa; type: cell-based; conditions: for decrease of percentage of motile sperm: capacitated sperm
Source text: as §1

CatSper [4] = test: Electrophysiology recordings of inward monovalent currents through CatSper (ICatSper) of human sperm; type: cell-based; conditions: for reduction of ICatSper stimulation compared to stimulation with P4 alone: co-application with P4, human spermatozoa; for reduction of ICatSper stimulation compared to stimulation with PregS alone: co-application with PregS
Source text: 2-AG hydrolysis by monoacyl lipases, such as ABHD2, is required for CatSper activation. The plant triterpenoid pristimerin was reported to inhibit the activity of related monoacylglycerol lipase (MAGL) (9). […] To test this hypothesis, human spermatozoa were stimulated with pristimerin, followed by exposure to either a mixture of pristimerin and P4, or to a mixture of pristimerin and PregS. In these experiments we analyzed inward monovalent currents through CatSper (ICatSper) of human sperm. Electrophysiology recordings were performed as described in (14). […] Compared to stimulation with P4 or PregS alone, the ICatSper stimulation was reduced by 63% (pristimerin and P4) and by 48% (pristimerin and PregS) (7).
Another pharmacologically active plant triterpenoid, which affects sperm functions when orally administered to rats, is lupeol (8). Lupeol is similar in structure to steroid hormones. […] However, administration of lupeol with P4 or PregS led to an even stronger inhibition of ICatSper than pristimerin. Compared to CatSper stimulation elicited by P4 or PregS alone, CatSper currents were reduced by 71% and 68%, respectively, in combination with P4 or PregS (7).

rats = conditions: orally administered to rats; cited from earlier work
[5] = PregS in combination with compound

With “pregnenolone sulfate [PregS, reference compound]” the “change (increase) of VCL” value (human sperm [1]) was “remained unchanged”.

In the case of progesterone-3-biotin, the “activity relative to progesterone” value (CatSper [2]) is reported as “as active as progesterone”.

With progesterone-3-BSA the “activity relative to progesterone” value (CatSper [2]) was “as active as progesterone”.

For `COC(=O)[C@]1(C)CC[C@]2(C)CC[C@]3(C)C4=CC=C5C(=CC(=O)C(O)=C5C)[C@]4(C)CC[C@@]3(C)[C@@H]2C1` [pristimerin], the “decrease of percentage of motile sperm” value (human sperm [3]; P4 co-applied with compound) was 19%, the “reduction of ICatSper stimulation compared to stimulation with P4 alone” value (CatSper [4]) was 63% and the “reduction of ICatSper stimulation compared to stimulation with PregS alone” value (CatSper [4]; human spermatozoa) was 48%. The “decrease of VCL compared to sperm treated with PregS alone” value (human sperm [1]; [5]) was 18% and the “reduction of VCL values in comparison to VCL in the presence of P4” value (human sperm [1]) was 39%.

In the case of progesterone-11-biotin, the “activity relative to progesterone” value (CatSper [2]) is reported as “inactive”.

For `CC#C[C@]1(O)CC[C@H]2[C@@H]3CCC4=CC(=O)CCC4=C3[C@@H](c3ccc(N(C)C)cc3)C[C@@]21C` [RU-486, mifepristione], the “activity relative to progesterone” value (CatSper [2]) was “inactive”.

For estrogen, the “effect on CatSper activation” value (CatSper [2]) was “impair CatSper activation”.

With `C[C@]12CCC(=O)C=C1CC[C@@H]1[C@@H]2[C@@H](O)C[C@@]2(C)[C@H]1CC[C@]2(O)C(=O)CO` [cortisol] the “effect on CatSper activation” value (CatSper [2]) was “impair CatSper activation”.

For `C=C(C)[C@@H]1CC[C@]2(C)CC[C@]3(C)[C@H](CC[C@@H]4[C@@]5(C)CC[C@H](O)C(C)(C)[C@@H]5CC[C@]43C)[C@@H]12` [lupeol], the “change in number of motile spermatozoa” value (human sperm [3]; capacitated and non-capacitated, compound alone) was “remained unchanged”, the “reduction of motile sperm” value (human sperm [3]; capacitated or non-capacitated sperm, co-stimulation with PregS) was “did not result in a significant reduction” and the “decrease of percentage of motile sperm” value (human sperm [3]; P4 co-applied with compound) was 19%. The “change of percentage of motile sperm” value (human sperm [3]; non-capacitated cells, P4 co-applied with compound) was “did not change”, the antifertility properties (rats) was “antifertility properties” and the “reduction of ICatSper stimulation compared to stimulation with P4 alone” value (CatSper [4]) was 71%. The “reduction of ICatSper stimulation compared to stimulation with PregS alone” value (CatSper [4]; human spermatozoa) was 68%, the “effect on basal ICatSper” value (CatSper [4]; compound alone, human spermatozoa) was “did not affect basal ICatSper” and the “decrease of VCL compared to sperm treated with PregS alone” value (human sperm [1]; [5]) was 9%. The “change (increase) of VCL” value (human sperm [1]) was “remained unchanged”, the “reduction of VCL values in comparison to VCL in the presence of P4” value (human sperm [1]) was 48% and the “change of VCL values” (human sperm [1]; non-capacitated sperm, PregS in combination with compound) was “remained unchanged”.

With progesterone-11-BSA the “activity relative to progesterone” value (CatSper [2]) was “inactive”.

In the case of `C[C@]12CC[C@H]3[C@@H](CCC4=CC(=O)CC[C@@]43C)[C@@H]1CC[C@@H]2O` [testosterone], the “effect on CatSper activation” value (CatSper [2]) is reported as “impair CatSper activation”.

With `CC(=O)[C@H]1CC[C@H]2[C@@H]3CCC4=CC(=O)CC[C@]4(C)[C@H]3CC[C@]12C` [P4, progesterone, reference compound] the “change (increase) of VCL” value (human sperm [1]) was 12%.
